Laboratory results: publication PMC10931682, “A Combination of Library Screening and Rational Mutagenesis Expands the Available Color Palette of the Smallest Fluorogen-Activating Protein Tag nanoFAST” (International Journal of Molecular Sciences, 2024)
Numbering of substitutions follows the chain as printed.

What was measured:
[1] = target: T1, nanoFAST (Halorhodospira halophila, UniProt P16113, Q41K/E46Q/C69G/S72T/A84S/Y94W/T95A/F96I/D97P/Y98T/Q99S/M100R/T101G/M109L/S117R); assay: spectrofluorometric titration, plate reader; type: binding; settings: PBS pH 7.4, 25 °C, 0.10 µM protein; non-covalent fluorogen
T1 construct: gene pyp; FAST (engineered PYP) lacking the first 27 residues, 98 aa; C-terminal tag of three glycines and six histidines; E. coli BL21(DE3), Ni purification
T1 sequence (P16113 28-125 Q41K/E46Q/C69G/S72T/A84S/Y94W/T95A/F96I/D97P/Y98T/Q99S/M100R/T101G/M109L/S117R): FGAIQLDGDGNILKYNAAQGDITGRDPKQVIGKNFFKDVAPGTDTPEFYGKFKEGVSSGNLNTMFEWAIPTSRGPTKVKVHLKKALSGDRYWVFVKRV
From the text: spectrofluorometric titration, plate reader on nanoFAST

[2] = target: T2, nanoFAST (Halorhodospira halophila, UniProt P16113, C69G/Y94W/T95M/F96I/D97P/Y98T/Q99S/M100R/T101G); assay: fluorescence enhancement screen, plate reader; type: binding; settings: PBS pH 7.4, 10 µM fluorogen, 1 µM protein
T2 construct: gene pyp; FAST (engineered PYP) lacking the first 27 residues, 98 aa; C-terminal tag of three glycines and six histidines; E. coli BL21(DE3), Ni purification
T2 sequence (P16113 28-125 C69G/Y94W/T95M/F96I/D97P/Y98T/Q99S/M100R/T101G): T1 sequence (P16113 28-125 Q41K/E46Q/C69G/S72T/A84S/Y94W/T95A/F96I/D97P/Y98T/Q99S/M100R/T101G/M109L/S117R) with K14Q, Q19E, T45S, S57A, A68M, L82M, R90S

Cc1cc(/C=C2\SC(=S)NC2=O)c(C)cc1O [HBR-2,5-DM]
Kd [1]: 0.5 ± 0.16 µM

COc1cc(/C=C2\SC(=S)NC2=O)cc(OC)c1O [HBR-DOM]
Kd [1]: 1.69 ± 0.32 µM

COc1cc(/C=C2\SC(=S)NC2=O)c(OC)cc1O [HBR-DOM2, 2,5-dimethoxy-4-hydroxy-arylidene-rhodanine]
fluorescence enhancement screen, plate reader [2]: significant decrease in fluorescence enhancement with the previously proposed fluorogen of the nanoFAST protein | Kd [1]: 0.13 ± 0.01 µM
